Legend:
[1] = system: HCV replicon RNA (GenBank Accession No. AJ242654); experiment: HCV Replicon Assay (replicon RNA reduction and/or Fluc reporter signal); format: cell-based, Hepatitis C virus; settings: Hepatitis C virus, 72 h, replicon-containing cells cultured with test compound for up to 3 days
Procedure, shortened: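 Bicistronic replicon-containing cells cultured with compound for up to 3 days, with interferon as positive control. Inhibition quantified by replicon RNA reduction and/or Fluc reporter signal; IC50 values generally derived from replicon RNA reduction.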

Structure (SMILES): C[C@H](NS(=O)(=O)c1ccc(-c2c(C#N)c3cc(C(F)(F)F)cnc3n2CC2CC2)nc1)C(F)(F)F [Cpd 295, 6-[3-cyano-1-(cyclopropylmethyl)-5-(trifluoromethyl)-1H-pyrrolo[2,3-b]pyridin-2-yl]-N-[(2S)-1,1,1-trifluoropropan-2-yl]pyridine-3-sulfonamide]
- melting point: 193 to 195 °C
- IC50 [1]: < 0.5 µM

Structure (SMILES): CC(C)(C)NS(=O)(=O)c1ccc(-c2c(C#N)c3cc(C(F)(F)F)cnc3n2CC2CC2)nc1 [Cpd 296, N-tert-butyl-6-[3-cyano-1-(cyclopropylmethyl)-5-(trifluoromethyl)-1H-pyrrolo[2,3-b]pyridin-2-yl]pyridine-3-sulfonamide]
- melting point: 179 to 180 °C
- IC50 [1]: < 0.5 µM

Structure (SMILES): CC(C)(C)NS(=O)(=O)c1ccc(-c2c(C#N)c3cc(C(F)(F)F)cnc3n2C2CCC2)nc1 [Cpd 297, N-tert-butyl-6-[3-cyano-1-cyclobutyl-5-(trifluoromethyl)-1H-pyrrolo[2,3-b]pyridin-2-yl]pyridine-3-sulfonamide]
- melting point: 176 to 178 °C
- IC50 [1]: < 0.5 µM

Structure (SMILES): Cc1cc(-c2c(C#N)c3cc(C(F)(F)F)cnc3n2C2CCC2)ncc1S(=O)(=O)N[C@@H](C)C(F)(F)F [Cpd 298, 6-[3-cyano-1-cyclobutyl-5-(trifluoromethyl)-1H-pyrrolo[2,3-b]pyridin-2-yl]-4-methyl-N-[(2S)-1,1,1-trifluoropropan-2-yl]pyridine-3-sulfonamide]
- melting point: 166 to 171 °C
- IC50 [1]: < 0.5 µM

Structure (SMILES): Cc1cnc2c(c1)c(C#N)c(-c1cccc(NS(=O)(=O)C(C)C)c1)n2C1CCC1 [Cpd 299, N-[3-(3-cyano-1-cyclobutyl-5-methyl-1H-pyrrolo[2,3-b]pyridin-2-yl)phenyl]propane-2-sulfonamide]
- melting point: 166 to 173 °C
- IC50 [1]: 2 to 5 µM

Structure (SMILES): C[C@H](NS(=O)(=O)c1ccc(-c2c(C#N)c3cc(C(F)(F)F)cnc3n2C2CCC2)cc1)C(F)(F)F [Cpd 300, 4-[3-cyano-1-cyclobutyl-5-(trifluoromethyl)-1H-pyrrolo[2,3-b]pyridin-2-yl]-N-[(2S)-1,1,1-trifluoropropan-2-yl]benzenesulfonamide]
- melting point: 218 to 220 °C
- IC50 [1]: < 0.5 µM

Structure (SMILES): Cc1cc(S(=O)(=O)N[C@@H](C)C(F)(F)F)cnc1-c1c(C#N)c2cc(C(F)(F)F)cnc2n1C1CCC1 [Cpd 301, 6-[3-cyano-1-cyclobutyl-5-(trifluoromethyl)-1H-pyrrolo[2,3-b]pyridin-2-yl]-5-methyl-N-[(2S)-1,1,1-trifluoropropan-2-yl]pyridine-3-sulfonamide]
- melting point: 190 to 194 °C
- IC50 [1]: < 0.5 µM

Structure (SMILES): N#Cc1c(-c2ccc(S(=O)(=O)NC3CCC3)cn2)n(C2CCC2)c2ncc(C(F)(F)F)cc12 [Cpd 302, 6-[3-cyano-1-cyclobutyl-5-(trifluoromethyl)-1H-pyrrolo[2,3-b]pyridin-2-yl]-N-cyclobutylpyridine-3-sulfonamide]
- melting point: 197 to 199 °C
- IC50 [1]: < 0.5 µM

Structure (SMILES): C[C@H](NS(=O)(=O)c1ccc(-c2c(C#N)c3cc(C(F)(F)F)cnc3n2-c2ncccn2)nc1)C(F)(F)F [Cpd 303, 6-[3-cyano-1-(pyrimidin-2-yl)-5-(trifluoromethyl)-1H-pyrrolo[2,3-b]pyridin-2-yl]-N-[(2S)-1,1,1-trifluoropropan-2-yl]pyridine-3-sulfonamide]
- melting point: 213 to 215 °C
- IC50 [1]: < 0.5 µM

Structure (SMILES): C[C@H](NS(=O)(=O)c1ccc(-c2c(C(N)=O)c3cc(C(F)(F)F)cnc3n2C2CCC2)nc1)C(F)(F)F [Cpd 304, 1-cyclobutyl-5-(trifluoromethyl)-2-(5-{[(2S)-1,1,1-trifluoropropan-2-yl]sulfamoyl}pyridin-2-yl)-1H-pyrrolo[2,3-b]pyridine-3-carboxamide]
- melting point: 219 to 221 °C
- IC50 [1]: < 0.5 µM

Structure (SMILES): C[C@H](NS(=O)(=O)c1ccc(-c2c(C#N)c3cc(S(C)(=O)=O)cnc3n2C2CCCC2)nc1)C(F)(F)F [Cpd 305, 6-[3-cyano-1-cyclopentyl-5-(methylsulfonyl)-1H-pyrrolo[2,3-b]pyridin-2-yl]-N-[(2S)-1,1,1-trifluoropropan-2-yl]pyridine-3-sulfonamide]
- melting point: 260 to 261 °C
- IC50 [1]: < 0.5 µM

Structure (SMILES): C[C@H](NS(=O)(=O)c1ccc(-c2c(C#N)c3cc(Cl)cnc3n2-c2ccccn2)nc1)C(F)(F)F [Cpd 306, 6-[5-chloro-3-cyano-1-(pyridin-2-yl)-1H-pyrrolo[2,3-b]pyridin-2-yl]-N-[(2S)-1,1,1-trifluoropropan-2-yl]pyridine-3-sulfonamide]
- melting point: 179 to 181 °C
- IC50 [1]: < 0.5 µM

Structure (SMILES): C[C@H](NS(=O)(=O)c1ccc(-c2c(C#N)c3cc(Cl)cnc3n2-c2cnccn2)nc1)C(F)(F)F [Cpd 307, 6-[5-chloro-3-cyano-1-(pyrazin-2-yl)-1H-pyrrolo[2,3-b]pyridin-2-yl]-N-[(2S)-1,1,1-trifluoropropan-2-yl]pyridine-3-sulfonamide]
- melting point: 247 to 249 °C
- IC50 [1]: < 0.5 µM

Structure (SMILES): C[C@H](NS(=O)(=O)c1ccc(-c2c(C#N)c3cc(Cl)cnc3n2-c2ccccc2)nc1)C(F)(F)F [Cpd 308, 6-(5-chloro-3-cyano-1-phenyl-1H-pyrrolo[2,3-b]pyridin-2-yl)-N-[(2S)-1,1,1-trifluoropropan-2-yl]pyridine-3-sulfonamide]
- melting point: 211 to 213 °C
- IC50 [1]: < 0.5 µM

Structure (SMILES): COc1cnc2c(c1)c(C#N)c(-c1ccc(S(=O)(=O)NC3CCC3)cn1)n2C1CCC1 [Cpd 309, 6-(3-cyano-1-cyclobutyl-5-methoxy-1H-pyrrolo[2,3-b]pyridin-2-yl)-N-cyclobutylpyridine-3-sulfonamide]
- melting point: 203 to 207 °C
- IC50 [1]: < 0.5 µM

Structure (SMILES): COc1cnc2c(c1)c(C#N)c(-c1ccc(S(=O)(=O)NC3CC3)cn1)n2C1CCC1 [Cpd 310, 6-(3-cyano-1-cyclobutyl-5-methoxy-1H-pyrrolo[2,3-b]pyridin-2-yl)-N-cyclopropylpyridine-3-sulfonamide]
- melting point: 161 to 162 °C
- IC50 [1]: < 0.5 µM

Structure (SMILES): COc1cnc2c(c1)c(C#N)c(-c1ccc(S(=O)(=O)NC3(C)CC3)cn1)n2C1CCC1 [Cpd 311, 6-(3-cyano-1-cyclobutyl-5-methoxy-1H-pyrrolo[2,3-b]pyridin-2-yl)-N-(1-methylcyclopropyl)pyridine-3-sulfonamide]
- melting point: 179 to 181 °C
- IC50 [1]: < 0.5 µM

Structure (SMILES): COc1cnc2c(c1)c(C#N)c(-c1ncc(S(=O)(=O)NC3(C)CC3)cn1)n2C1CCC1 [Cpd 313, 2-(3-cyano-1-cyclobutyl-5-methoxy-1H-pyrrolo[2,3-b]pyridin-2-yl)-N-(1-methylcyclopropyl)pyrimidine-5-sulfonamide]
- melting point: 209 to 212 °C
- IC50 [1]: < 0.5 µM

Structure (SMILES): C[C@H](NS(=O)(=O)c1ccc(-c2c(C#N)c3cc(C(F)(F)F)cnc3n2-c2cnccn2)nc1)C(F)(F)F [Cpd 316, 6-[3-cyano-1-(pyrazin-2-yl)-5-(trifluoromethyl)-1H-pyrrolo[2,3-b]pyridin-2-yl]-N-[(2S)-1,1,1-trifluoropropan-2-yl]pyridine-3-sulfonamide]
- melting point: 226 to 228 °C
- IC50 [1]: < 0.5 µM

Structure (SMILES): C[C@H](NS(=O)(=O)c1ccc(-c2c(C#N)c3cc(C(F)(F)F)cnc3n2-c2ccccn2)nc1)C(F)(F)F [Cpd 317, 6-[3-cyano-1-(pyridin-2-yl)-5-(trifluoromethyl)-1H-pyrrolo[2,3-b]pyridin-2-yl]-N-[(2S)-1,1,1-trifluoropropan-2-yl]pyridine-3-sulfonamide]
- melting point: 110 to 112 °C
- IC50 [1]: < 0.5 µM

Structure (SMILES): C[C@H](NS(=O)(=O)c1ccc(-c2c(C#N)c3cc(C(F)(F)F)cnc3n2-c2ccccc2)nc1)C(F)(F)F [Cpd 318, 6-[3-cyano-1-phenyl-5-(trifluoromethyl)-1H-pyrrolo[2,3-b]pyridin-2-yl]-N-[(2S)-1,1,1-trifluoropropan-2-yl]pyridine-3-sulfonamide]
- melting point: 186 to 188 °C
- IC50 [1]: < 0.5 µM

Structure (SMILES): C[C@H](NS(=O)(=O)c1ccc(-c2c(C#N)c3cc(F)cnc3n2-c2ncccn2)nc1)C(F)(F)F [Cpd 320, 6-[3-cyano-5-fluoro-1-(pyrimidin-2-yl)-1H-pyrrolo[2,3-b]pyridin-2-yl]-N-[(2S)-1,1,1-trifluoropropan-2-yl]pyridine-3-sulfonamide]
- melting point: 171 to 173 °C
- IC50 [1]: < 0.5 µM

Structure (SMILES): C[C@H](NS(=O)(=O)c1ccc(-c2c(C#N)c3cc(F)cnc3n2-c2cnccn2)nc1)C(F)(F)F [Cpd 321, 6-[3-cyano-5-fluoro-1-(pyrazin-2-yl)-1H-pyrrolo[2,3-b]pyridin-2-yl]-N-[(2S)-1,1,1-trifluoropropan-2-yl]pyridine-3-sulfonamide]
- melting point: 212 to 214 °C
- IC50 [1]: < 0.5 µM

Structure (SMILES): C[C@H](NS(=O)(=O)c1ccc(-c2c(C#N)c3cc(F)cnc3n2-c2ccccn2)nc1)C(F)(F)F [Cpd 322, 6-[3-cyano-5-fluoro-1-(pyridin-2-yl)-1H-pyrrolo[2,3-b]pyridin-2-yl]-N-[(2S)-1,1,1-trifluoropropan-2-yl]pyridine-3-sulfonamide]
- melting point: 229 to 231 °C
- IC50 [1]: < 0.5 µM

Structure (SMILES): CSc1cnc2c(c1)c(C#N)c(-c1ccc(S(=O)(=O)N[C@@H](C)C(F)(F)F)cn1)n2C1CCC1 [Cpd 323, 6-[3-cyano-1-cyclobutyl-5-(methylsulfanyl)-1H-pyrrolo[2,3-b]pyridin-2-yl]-N-[(2S)-1,1,1-trifluoropropan-2-yl]pyridine-3-sulfonamide]
- melting point: 154 to 158 °C
- IC50 [1]: < 0.5 µM

Structure (SMILES): C[C@H](NS(=O)(=O)c1ccc(-c2c(C(N)=O)c3cc(Cl)cnc3n2C2CCCC2)nc1)C(F)(F)F [Cpd 324, 5-chloro-1-cyclopentyl-2-(5-{[(2S)-1,1,1-trifluoropropan-2-yl]sulfamoyl}pyridin-2-yl)-1H-pyrrolo[2,3-b]pyridine-3-carboxamide]
- melting point: 289 to 295 °C
- IC50 [1]: < 0.5 µM

Structure (SMILES): NC(=O)c1c(-c2ccc(S(=O)(=O)NC3(C(F)(F)F)CC3)cn2)n(C2CCC2)c2ncc(Cl)cc12 [Cpd 325, 5-chloro-1-cyclobutyl-2-(5-{[1-(trifluoromethyl)cyclopropyl]sulfamoyl}pyridin-2-yl)-1H-pyrrolo[2,3-b]pyridine-3-carboxamide]
- melting point: 238 to 240 °C
- IC50 [1]: < 0.5 µM

— patent publication US9593108B2, “Compounds and methods for antiviral treatment” (PTC Therapeutics, Inc., priority 2009, dated 2017)
